Source: patent US20240108623A1, “METHODS OF TREATING CANCER WITH POZIOTINIB” (BOARD OF REGENTS, THE UNIVERSITY OF TEXAS SYSTEM, priority 2021, published 2024)

Experiments:
Test in all cases: Ba/F3 cell drug screening, Cell Titer Glo
Type in all cases: cell-based
EGFR A763insFQEA = molecular target: T1, EGFR A763insFQEA (Homo sapiens, UniProt P00533, INS763FQEA); settings: Ba/F3 cells expressing EGFR A763insFQEA; 72 hours
T1 construct: expressed in transfected cells; host or cells: Ba/F3 (retroviral, pBabe-Puro based vector)
Experimental: (§1) Ba/F3 cell generation, drug screening, and IC50 approximations. Ba/F3 cells were obtained as a gift from Dr. Gordon Mills (MD Anderson Cancer Center), and maintained in RPMI (Sigma) containing 10% FBS, 1% penicillin/streptomycin, and 10 ng/ml recombinant mIL-3 (R&D Biosystems). To establish stable Ba/F3 cell lines, Ba/F3 cells were transduced with retroviruses containing mutant EGFR plasmids for 12-24 hours. Retroviruses were generated using Lipofectamine 2000 (Invitrogen) transfections of Phoenix 293T-ampho cells (Orbigen) with pBabe-Puro based vectors listed below in Table 6. Vectors were generated by GeneScript or Bioinnovatise using parental vectors from Addgene listed below in Table 6.
(§2) After 48-72 hours of transduction, 2 μg/ml puromycin (Invitrogen) was added to Ba/F3 cell lines in complete RPMI. To select for EGFR positive cell lines, cells were stained with PE-EGFR (Biolegend) and sorted by FACS. After sorting, EGFR positive cells were maintained in RPMI containing 10% FBS, 1% penicillin/streptomycin, and 1 ng/ml EGF to support cell viability. Drug screening was performed as previously described^41,42. Shortly, cells were plated in 384-well plates (Greiner Bio-One) at 2000-3000 cells per well in technical triplicate. Seven different concentrations of TKIs or DMSO vehicle were added to reach a final volume of 40 μL per well. After 72 hours, 11p L of Cell Titer Glo (Promega) was added to each well. Plates were incubated for a minimum of 10 minutes, and bioluminescence was determined using a FLUOstar OPTIMA plate reader (BMG LABTECH). Raw bioluminescence values were normalized to DMSO control treated cells, and values were plotted in GraphPad Prism. Non-linear regressions were used to fit the normalized data with a variable slope, and IC50 values were determined by GraphPad prism by interpolation of concentrations at 50% inhibition. Drug screens were performed in technical triplicate on each plate and either duplicate or triplicate biological replicates. Mutant to WT ratios (Mut/WT) for each drug were calculated by dividing the IC50 values of mutant cell lines by the average IC50 value of Ba/F3 cells expressing WT EGFR supplemented with 10 ng/ml EGF for each drug. Statistical differences between groups were determined by ANOVA as described in the figure legends.

EGFR E709K G719S = molecular target: T2, EGFR E709K G719S (Homo sapiens, UniProt P00533, E709K/G719S); settings: Ba/F3 cells expressing EGFR E709K G719S; 72 hours
T2 construct: expressed in transfected cells; host or cells: Ba/F3 (retroviral transduction, pBabe-Puro based vectors)
Experimental: as §1, §2

EGFR Ex19del/T790M/G724S = molecular target: T3, EGFR Ex19del/T790M/G724S (Homo sapiens, UniProt P00533, DEL746-750/G724S/T790M); settings: Ba/F3 cells expressing EGFR Ex19del/T790M/G724S; 72 hours
T3 construct: expressed in transfected cells; host or cells: Ba/F3 (retroviral transduction, pBabe-Puro based vectors)
Experimental: as §1, §2

EGFR G719A L861Q = molecular target: T4, EGFR G719A L861Q (Homo sapiens, UniProt P00533, G719A/L861Q); settings: Ba/F3 cells expressing EGFR G719A L861Q; 72 hours
T4 construct: expressed in transfected cells; host or cells: Ba/F3 (retroviral transduction, pBabe-Puro based vectors)
Experimental: as §1, §2

EGFR G719A/R776C = molecular target: T5, EGFR G719A/R776C (Homo sapiens, UniProt P00533, G719A/R776C); settings: Ba/F3 cells expressing EGFR G719A/R776C; 72 hours
T5 construct: expressed in transfected cells; host or cells: Ba/F3 (retroviral transduction, pBabe-Puro based vectors)
Experimental: as §1, §2

EGFR K754E = molecular target: T6, EGFR K754E (Homo sapiens, UniProt P00533, K754E); settings: Ba/F3 cells expressing EGFR K754E; 72 hours
T6 construct: expressed in transfected cells; host or cells: Ba/F3 (retroviral, pBabe-Puro based vector)
Experimental: as §1, §2

EGFR K757R = molecular target: T7, EGFR K757R (Homo sapiens, UniProt P00533, K757R); settings: Ba/F3 cells expressing EGFR K757R; 72 hours
T7 construct: expressed in transfected cells; host or cells: Ba/F3 (retroviral transduction, pBabe-Puro based vectors)
Experimental: as §1, §2

EGFR L718Q = molecular target: T8, EGFR L718Q (Homo sapiens, UniProt P00533, L718Q); settings: Ba/F3 cells expressing EGFR L718Q; 72 hours
T8 construct: expressed in transfected cells; host or cells: Ba/F3 (retroviral transduction, pBabe-Puro based vectors)
Experimental: as §1, §2

[1] = molecular target: T9, EGFR L747_K754del insATSPE (Homo sapiens, UniProt P00533, DEL747-749/K754E); settings: Ba/F3 cells expressing EGFR L747_K754del insATSPE; 72 hours
T9 construct: expressed in transfected cells; host or cells: Ba/F3 (retroviral, pBabe-Puro based vector)
Experimental: as §1, §2

EGFR L858R L718Q = molecular target: T10, EGFR L858R L718Q (Homo sapiens, UniProt P00533, L718Q/L858R); settings: Ba/F3 cells expressing EGFR L858R L718Q; 72 hours
T10 construct: host or cells: Ba/F3 (retroviral transduction, pBabe-Puro based vectors)
Experimental: as §1, §2

EGFR L858R S784F = molecular target: T11, EGFR L858R S784F (Homo sapiens, UniProt P00533, L858R/S784F); settings: Ba/F3 cells expressing EGFR L858R S784F; 72 hours
T11 construct: expressed in transfected cells; host or cells: Ba/F3 (retroviral, pBabe-Puro based vector; created by GeneScript from EGFR L858R)
Experimental: as §1, §2

EGFR L858R T790M L792H = molecular target: T12, EGFR L858R T790M L792H (Homo sapiens, UniProt P00533, L792H/L858R/T790M); settings: Ba/F3 cells expressing EGFR L858R T790M L792H; 72 hours
T12 construct: expressed in transfected cells; host or cells: Ba/F3 (retroviral transduction, pBabe-Puro based vectors)
Experimental: as §1, §2

EGFR L858R/T790M/L718Q = molecular target: T13, EGFR L858R/T790M/L718Q (Homo sapiens, UniProt P00533, L718Q/L858R/T790M); settings: Ba/F3 cells expressing EGFR L858R/T790M/L718Q; 72 hours
T13 construct: expressed in transfected cells; host or cells: Ba/F3 (retroviral transduction, pBabe-Puro based vectors)
Experimental: as §1, §2

EGFR L858R/V834L = molecular target: T14, EGFR L858R/V834L (Homo sapiens, UniProt P00533, L858R/V834L); settings: Ba/F3 cells expressing EGFR L858R/V834L; 72 hours
T14 construct: expressed in transfected cells; host or cells: Ba/F3 (retroviral, pBabe-Puro based vector)
Experimental: as §1, §2

EGFR S768I/T790M = molecular target: T15, EGFR S768I/T790M (Homo sapiens, UniProt P00533, S768I/T790M); settings: Ba/F3 cells expressing EGFR S768I/T790M; 72 hours
T15 construct: expressed in transfected cells; host or cells: Ba/F3 (retroviral transduction, pBabe-Puro based vectors)
Experimental: as §1, §2

EGFR V769L = molecular target: T16, EGFR V769L (Homo sapiens, UniProt P00533, V769L); settings: Ba/F3 cells expressing EGFR V769L; 72 hours
T16 construct: expressed in transfected cells; host or cells: Ba/F3 (retroviral transduction, pBabe-Puro based vectors)
Experimental: as §1, §2

## C=CC(=O)N1CCC(Oc2cc3c(Nc4ccc(Cl)c(Cl)c4F)ncnc3cc2OC)CC1 [Poziotinib]
EGFR A763insFQEA
  Response of Cells Comprising Classical-Like EGFR Mutations to Second-Generation TKIs: 0.06955
EGFR E709K G719S
  Response of Cells Comprising PACC EGFR Mutations to Second-Generation TKIs: 0.01609
EGFR Ex19del/T790M/G724S
  Response of Cells Comprising T790M-like-S EGFR Mutations to Second-Generation TKIs: 19.53
EGFR G719A L861Q
  Response of Cells Comprising PACC EGFR Mutations to Second-Generation TKIs: 0.09492
EGFR G719A/R776C
  Response of Cells Comprising PACC EGFR Mutations to Second-Generation TKIs: 0.01624
EGFR K754E
  Response of Cells Comprising Classical-Like EGFR Mutations to Second-Generation TKIs: 0.009588
EGFR K757R
  Response of Cells Comprising PACC EGFR Mutations to Second-Generation TKIs: 0.07563
EGFR L718Q
  Response of Cells Comprising PACC EGFR Mutations to Second-Generation TKIs: 0.1927
[1]
  Response of Cells Comprising T790M-like-S EGFR Mutations to Second-Generation TKIs: 0.8493
EGFR L858R L718Q
  Response of Cells Comprising PACC EGFR Mutations to Second-Generation TKIs: 0.01623
EGFR L858R S784F
  Response of Cells Comprising Classical-Like EGFR Mutations to Second-Generation TKIs: 0.1185
EGFR L858R T790M L792H
  Response of Cells Comprising T790M-like-S EGFR Mutations to Second-Generation TKIs: 56.36
EGFR L858R/T790M/L718Q
  Response of Cells Comprising T790M-like-R EGFR Mutations to Second-Generation TKIs: 70.12
EGFR L858R/V834L
  Response of Cells Comprising Classical-Like EGFR Mutations to Second-Generation TKIs: 0.08599
EGFR S768I/T790M
  Response of Cells Comprising T790M-like-S EGFR Mutations to Second-Generation TKIs: 2.935
EGFR V769L
  Response of Cells Comprising PACC EGFR Mutations to Second-Generation TKIs: 0.05673
